The values that follow come from ChEMBL document CHEMBL1201862, “PubChem BioAssay data set” (2004).

Calls of active or inactive are those of the source.

In data set [1] the target is Sphingosine 1-phosphate receptor 2 (Homo sapiens, UniProt O95136). Kind of data set: Dose Response Cell Based Assay for Antagonists of the S1P2 Receptor. [Related pubchem assays: 856, 736 ]. It counts as functional.
In data set [2] the target is Large T antigen (Simian virus 40, UniProt P03070). It counts as functional, Betapolyomavirus macacae.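 Further: Confirmatory-stage PubChem screen for compounds that inhibit SV40 T antigen.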
Large T antigen, sequence (P03070 whole entry): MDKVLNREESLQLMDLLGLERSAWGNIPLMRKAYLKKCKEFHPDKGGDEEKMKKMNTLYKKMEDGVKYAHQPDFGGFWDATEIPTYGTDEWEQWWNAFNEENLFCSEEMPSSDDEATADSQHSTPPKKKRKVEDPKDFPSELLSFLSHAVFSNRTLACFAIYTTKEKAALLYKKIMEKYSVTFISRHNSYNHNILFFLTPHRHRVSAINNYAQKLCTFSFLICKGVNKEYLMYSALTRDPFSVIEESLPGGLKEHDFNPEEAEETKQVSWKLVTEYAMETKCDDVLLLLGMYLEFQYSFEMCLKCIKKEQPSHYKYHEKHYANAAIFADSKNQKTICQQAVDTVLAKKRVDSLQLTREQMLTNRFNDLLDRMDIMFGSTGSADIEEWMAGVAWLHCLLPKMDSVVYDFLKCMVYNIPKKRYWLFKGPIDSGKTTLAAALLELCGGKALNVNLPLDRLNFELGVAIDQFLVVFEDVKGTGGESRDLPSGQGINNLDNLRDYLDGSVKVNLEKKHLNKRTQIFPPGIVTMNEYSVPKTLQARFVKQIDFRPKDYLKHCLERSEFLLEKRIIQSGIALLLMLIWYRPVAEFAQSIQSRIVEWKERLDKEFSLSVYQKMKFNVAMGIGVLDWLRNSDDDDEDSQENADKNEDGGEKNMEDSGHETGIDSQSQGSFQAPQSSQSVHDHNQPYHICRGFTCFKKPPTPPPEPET
For data set [3], the target named is Protein Tat (Human immunodeficiency virus type 1 group M subtype B (isolate HXB2)(HIV-1), UniProt P04608). The class given is functional.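 Further: tat binding to TAR RNA read out by fluorescence polarization.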
Protein Tat, sequence (P04608 whole entry): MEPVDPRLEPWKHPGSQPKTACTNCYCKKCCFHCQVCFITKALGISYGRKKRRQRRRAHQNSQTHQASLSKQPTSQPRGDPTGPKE
For data set [4], the target named is Ephrin type-A receptor 4 (Mus musculus, UniProt Q03137). Kind of data set: EphA4 ligand-binding antagonists – biochemical, colorimetric, mouse EphA4, primary screen (AID 689). The class given is functional.
Ephrin type-A receptor 4, sequence (Q03137 whole entry): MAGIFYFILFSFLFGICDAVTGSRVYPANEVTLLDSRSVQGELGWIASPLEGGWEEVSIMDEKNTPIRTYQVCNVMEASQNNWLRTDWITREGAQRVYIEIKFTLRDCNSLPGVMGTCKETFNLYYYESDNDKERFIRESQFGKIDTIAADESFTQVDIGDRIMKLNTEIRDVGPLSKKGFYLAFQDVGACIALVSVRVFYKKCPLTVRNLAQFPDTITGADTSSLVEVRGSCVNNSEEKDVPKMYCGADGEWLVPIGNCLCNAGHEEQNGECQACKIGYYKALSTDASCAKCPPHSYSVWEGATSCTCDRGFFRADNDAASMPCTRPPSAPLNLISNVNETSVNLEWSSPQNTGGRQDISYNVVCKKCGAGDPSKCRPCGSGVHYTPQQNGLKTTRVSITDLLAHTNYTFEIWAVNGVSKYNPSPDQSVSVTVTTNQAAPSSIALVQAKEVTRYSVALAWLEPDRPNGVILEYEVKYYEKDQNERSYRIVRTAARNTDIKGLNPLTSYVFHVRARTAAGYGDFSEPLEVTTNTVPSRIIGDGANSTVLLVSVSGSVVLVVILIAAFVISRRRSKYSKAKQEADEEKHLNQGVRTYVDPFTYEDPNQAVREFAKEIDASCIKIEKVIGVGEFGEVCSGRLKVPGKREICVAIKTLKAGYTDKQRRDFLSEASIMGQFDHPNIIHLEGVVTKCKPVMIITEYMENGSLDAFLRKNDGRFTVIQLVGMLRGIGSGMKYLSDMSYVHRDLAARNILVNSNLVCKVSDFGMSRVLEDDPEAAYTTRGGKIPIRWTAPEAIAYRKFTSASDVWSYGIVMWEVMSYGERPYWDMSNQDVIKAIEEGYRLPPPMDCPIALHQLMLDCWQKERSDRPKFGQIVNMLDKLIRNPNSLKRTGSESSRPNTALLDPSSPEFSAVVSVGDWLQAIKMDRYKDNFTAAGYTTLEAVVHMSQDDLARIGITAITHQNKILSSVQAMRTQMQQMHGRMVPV
In data set [5] the target is Cytochrome P450 2C9 (Homo sapiens, UniProt P11712).
Cytochrome P450 2C9, sequence (P11712 whole entry): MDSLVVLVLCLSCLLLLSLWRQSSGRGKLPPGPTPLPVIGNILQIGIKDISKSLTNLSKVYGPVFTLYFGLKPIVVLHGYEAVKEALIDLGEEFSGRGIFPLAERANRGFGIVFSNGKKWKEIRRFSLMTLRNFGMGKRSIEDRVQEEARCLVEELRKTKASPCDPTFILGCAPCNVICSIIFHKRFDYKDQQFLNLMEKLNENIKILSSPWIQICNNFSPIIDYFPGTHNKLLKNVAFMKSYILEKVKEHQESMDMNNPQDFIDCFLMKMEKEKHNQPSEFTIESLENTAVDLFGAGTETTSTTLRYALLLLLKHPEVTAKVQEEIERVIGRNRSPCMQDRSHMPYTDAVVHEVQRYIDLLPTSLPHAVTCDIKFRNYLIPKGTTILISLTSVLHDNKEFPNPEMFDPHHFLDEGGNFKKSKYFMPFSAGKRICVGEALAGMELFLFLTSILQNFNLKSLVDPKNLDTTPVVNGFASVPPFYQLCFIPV
The target in data set [6] is T1, Estrogen receptor beta (Homo sapiens, UniProt Q92731). Kind of data set: blockers of SRC-3 recruitment to ERβ – biochemical, ELISA, streptavidin-HRP readout, orthogonal assay, confirmation (AID 1060).
T1 sequence (Q92731 whole entry): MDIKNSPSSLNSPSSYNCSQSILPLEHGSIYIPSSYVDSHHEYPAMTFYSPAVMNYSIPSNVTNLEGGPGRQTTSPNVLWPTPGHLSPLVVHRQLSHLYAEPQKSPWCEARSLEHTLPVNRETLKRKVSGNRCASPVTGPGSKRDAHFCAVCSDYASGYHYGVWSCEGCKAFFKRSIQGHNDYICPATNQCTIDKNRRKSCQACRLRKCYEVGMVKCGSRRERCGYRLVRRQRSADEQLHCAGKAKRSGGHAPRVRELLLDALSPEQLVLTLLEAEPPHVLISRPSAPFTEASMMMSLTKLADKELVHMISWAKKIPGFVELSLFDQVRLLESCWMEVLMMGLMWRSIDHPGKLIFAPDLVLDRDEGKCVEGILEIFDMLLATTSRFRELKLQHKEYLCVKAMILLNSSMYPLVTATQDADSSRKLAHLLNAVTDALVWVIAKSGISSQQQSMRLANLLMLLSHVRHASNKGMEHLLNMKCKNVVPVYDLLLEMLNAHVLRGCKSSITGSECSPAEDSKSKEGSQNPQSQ
For data set [7], the target named is Eukaryotic translation initiation factor 4E (Mus musculus, UniProt P63073). The data set is described as follows: blockers of eIF4G binding by eIF4E – biochemical, TR-FRET, dose response (AID 855).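 Further: potency for disrupting eIF4E binding to eIF4GI seen as loss of FRET.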 The class given is functional. Background: In TR-FRET formats the signal depends on donor and acceptor labels being close together.
Eukaryotic translation initiation factor 4E, sequence (P63073 whole entry): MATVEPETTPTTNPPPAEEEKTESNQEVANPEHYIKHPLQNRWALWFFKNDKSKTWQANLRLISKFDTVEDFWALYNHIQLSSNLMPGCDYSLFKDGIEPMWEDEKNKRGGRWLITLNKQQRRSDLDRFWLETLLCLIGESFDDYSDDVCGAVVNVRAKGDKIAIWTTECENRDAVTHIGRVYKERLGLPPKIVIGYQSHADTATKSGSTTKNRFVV
Data set [8] addresses Induced myeloid leukemia cell differentiation protein Mcl-1 (Homo sapiens, UniProt Q07820). The class given is functional.
In data set [9] the target is T2, Rac GTPase-activating protein 1 (Homo sapiens, UniProt Q9H0H5).
T2 sequence (Q9H0H5 whole entry): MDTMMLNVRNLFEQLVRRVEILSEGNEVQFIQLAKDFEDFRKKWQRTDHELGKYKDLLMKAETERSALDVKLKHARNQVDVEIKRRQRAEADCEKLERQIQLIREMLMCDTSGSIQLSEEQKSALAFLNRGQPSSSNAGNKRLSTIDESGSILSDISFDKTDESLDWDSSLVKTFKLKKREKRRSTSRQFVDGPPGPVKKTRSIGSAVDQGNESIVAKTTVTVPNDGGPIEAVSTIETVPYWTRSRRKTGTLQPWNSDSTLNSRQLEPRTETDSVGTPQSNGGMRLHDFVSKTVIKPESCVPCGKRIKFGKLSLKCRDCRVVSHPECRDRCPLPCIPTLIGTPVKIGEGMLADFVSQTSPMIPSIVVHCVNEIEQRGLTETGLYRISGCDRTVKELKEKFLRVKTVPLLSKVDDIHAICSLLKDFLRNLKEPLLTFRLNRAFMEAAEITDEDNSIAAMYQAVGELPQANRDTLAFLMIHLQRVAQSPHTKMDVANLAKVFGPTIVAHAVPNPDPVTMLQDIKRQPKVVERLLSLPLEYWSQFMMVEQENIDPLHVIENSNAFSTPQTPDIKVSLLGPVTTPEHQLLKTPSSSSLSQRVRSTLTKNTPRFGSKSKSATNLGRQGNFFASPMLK
Kind of data set: blockers of MgcRacGAP-driven Rac1 GTP hydrolysis – biochemical, ADP Hunter fluorescence, primary and confirmatory, confirmation (AID 624330). It counts as functional.

Data set [10] has as its target T1, Estrogen receptor beta.
The target in data set [11] is DNA (cytosine-5)-methyltransferase 1 (Homo sapiens, UniProt P26358). The data set is described as follows: inhibition of DNA methylation by DNMT1 – biochemical, fluorescent molecular beacon, confirmation (AID 602386). The class given is functional.
The target of data set [12] is T3, Carboxy-terminal domain RNA polymerase II polypeptide A small phosphatase 1 (Homo sapiens, UniProt Q9GZU7).
T3 sequence (Q9GZU7 whole entry): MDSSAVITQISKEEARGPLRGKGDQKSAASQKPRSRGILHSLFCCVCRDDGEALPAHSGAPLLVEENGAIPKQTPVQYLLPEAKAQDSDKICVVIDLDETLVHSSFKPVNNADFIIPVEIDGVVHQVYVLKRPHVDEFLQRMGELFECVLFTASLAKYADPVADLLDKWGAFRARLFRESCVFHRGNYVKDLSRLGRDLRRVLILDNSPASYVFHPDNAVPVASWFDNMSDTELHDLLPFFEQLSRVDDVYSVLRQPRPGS
The data set is described as follows: CTDSP1 inhibitors, concentration-response, biochemical, absorbance readout, ultra-high-throughput screen actives (AID 540297). It counts as functional.

Data set [13] deals with T4, Calpain-2 catalytic subunit (Sus scrofa, UniProt P43367).
T4 sequence (P43367 whole entry): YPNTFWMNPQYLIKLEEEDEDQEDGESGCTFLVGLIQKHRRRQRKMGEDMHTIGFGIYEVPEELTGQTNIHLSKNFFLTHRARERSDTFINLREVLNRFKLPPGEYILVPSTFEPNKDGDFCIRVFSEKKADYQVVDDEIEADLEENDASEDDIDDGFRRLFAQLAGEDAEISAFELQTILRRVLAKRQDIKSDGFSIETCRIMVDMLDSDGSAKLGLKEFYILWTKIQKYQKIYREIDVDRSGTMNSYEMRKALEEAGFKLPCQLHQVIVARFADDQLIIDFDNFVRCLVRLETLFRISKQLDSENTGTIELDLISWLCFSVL
Kind of data set: m-calpain protease blockers, concentration series – biochemical, fluorogenic peptide substrate, dose response (AID 1420). It counts as functional.

Data set [14] can be described thus: viability loss in human Jurkat cells – cell-based, luminescence, cytotoxicity control for P. falciparum gametocyte viability project, dose response (AID 1117277).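 Further: potency reflects loss of cellular ATP meaning fewer viable cells.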 It counts as functional.
The nature of data set [15]: viability inhibitors of stage V gametocytes – luminescence, dose response (AID 1117278).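 Further: gametocytes exposed to compound for 24 hours.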 The class given is functional, cell-based.
A short description of data set [16]: HIV-1 Vif–A3G interaction blockers – biochemical, TR-FRET, GST-Vif 1-94, biotin-A3G peptide, dose response retest, primary screen (AID 1117319).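 Further: TR-FRET signal of purified GST-Vif binding a biotinylated A3G peptide; inhibitors lower the FRET signal by blocking Vif and A3G binding.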 The class given is functional.
Data set [17] is described as follows: viability of uninfected HEp-2 cells – cell-based, HTS, cytotoxicity control for RSV inhibitor project, dose response (AID 2410). The class given is functional. The conditions noted are these: human respiratory syncytial virus.
Data set [18] in a line: OVCAR8 cell viability loss – plate reader, dry powder samples, PAX8 project, dose response (AID 743197). It counts as functional, cell-based. The conditions noted are these: OVCAR-8.
A short description of data set [19]: Dd2 malaria parasite growth inhibition potency – SYBR Green, dry powder samples, dose response (AID 1159566).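 Further: potency for growth inhibition with lower SYBR green DNA signal.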 The class given is functional, cell-based.
Data set [20] is described as follows: growth inhibition of PfATP4-mutant resistant parasites – NITD609-resistant line, SYBR Green, dry powder, dose response (AID 1159571).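 Further: parasites synchronized at ring stage by sorbitol before testing.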 The class given is functional, cell-based.
A short description of data set [21]: P. falciparum Dd2 growth inhibitors, dose response, SYBR Green, cherry-picked samples (AID 1159567). It counts as functional, cell-based.
Data set [22] concerns the target Paired box protein Pax-8 (Homo sapiens, UniProt Q06710). The data set is described as follows: PAX8 transcriptional activity inhibition in RMG-I – RMG-I cells, luciferase, cherry-pick, dose response (AID 687027).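 Further: luciferase reporter driven by Pax8 target thyroperoxidase promoter measured by SteadyGlo luminescence.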 The class given is functional, cell-based.
A short description of data set [23]: growth inhibition of yeast DHODH-expressing 3D7 parasites – SYBR Green, dry powder samples, dose response (AID 1159570).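 Further: parasite growth measured after 72 hours of compound exposure.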 It counts as functional, cell-based.
A short description of data set [24]: SNU-C1 cell viability reduction, dose response, CellTiter-Glo luminescence (AID 1117323). It counts as functional, cell-based. In general terms: Cellular ATP, detected with luciferase, serves as a proxy for viable cell number.
The nature of data set [25]: CellTiter-Glo luminescence survival assay, SW480 colon tumor line, concentration-response curve, half-maximal inhibitory concentration (AID 1117338). The class given is functional.
The nature of data set [26]: cytotoxicity toward HCT116 cells – cell-based, CellTiter-Glo luminescence, IC50, dose response (AID 1117332). It counts as functional. As to conditions: HCT-116.
For data set [27], the target named is Cytochrome P450 3A4 (Homo sapiens, UniProt P08684).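 Further: CYP3A4 tested as one member of a cytochrome P450 panel screen.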
Cytochrome P450 3A4, sequence (P08684 whole entry): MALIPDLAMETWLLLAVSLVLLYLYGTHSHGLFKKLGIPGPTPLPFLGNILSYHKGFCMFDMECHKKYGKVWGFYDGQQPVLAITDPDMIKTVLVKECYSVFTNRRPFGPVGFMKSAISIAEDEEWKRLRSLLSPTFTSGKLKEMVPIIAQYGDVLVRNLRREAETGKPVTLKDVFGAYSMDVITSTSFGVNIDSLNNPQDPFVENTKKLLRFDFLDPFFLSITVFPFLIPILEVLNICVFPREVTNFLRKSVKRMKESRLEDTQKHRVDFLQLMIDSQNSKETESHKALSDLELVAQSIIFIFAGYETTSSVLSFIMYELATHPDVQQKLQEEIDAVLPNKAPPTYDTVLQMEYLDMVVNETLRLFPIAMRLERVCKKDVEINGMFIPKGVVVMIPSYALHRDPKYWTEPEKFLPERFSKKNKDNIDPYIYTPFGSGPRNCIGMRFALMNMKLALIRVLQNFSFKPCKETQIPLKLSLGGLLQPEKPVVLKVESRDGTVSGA
Data set [28] can be described thus: cytotoxicity toward Colo320 cells – cell-based, CellTiter-Glo luminescence, IC50, dose response (AID 1117334). It counts as functional. The conditions noted are these: COLO 320.
The nature of data set [29]: RKO cell viability reduction, dose response, CellTiter-Glo luminescence (AID 1117322). The class given is functional.
The nature of data set [30]: Reduced DLD-1 viability, concentration-response, CellTiter-Glo luminescence (AID 1117352). The class given is functional.
A short description of data set [31]: cytotoxicity toward HT-29 cells – cell-based, CellTiter-Glo luminescence, IC50, dose response (AID 1117330). The class given is functional.

Induced myeloid leukemia cell differentiation protein Mcl-1, sequence (Q07820 whole entry): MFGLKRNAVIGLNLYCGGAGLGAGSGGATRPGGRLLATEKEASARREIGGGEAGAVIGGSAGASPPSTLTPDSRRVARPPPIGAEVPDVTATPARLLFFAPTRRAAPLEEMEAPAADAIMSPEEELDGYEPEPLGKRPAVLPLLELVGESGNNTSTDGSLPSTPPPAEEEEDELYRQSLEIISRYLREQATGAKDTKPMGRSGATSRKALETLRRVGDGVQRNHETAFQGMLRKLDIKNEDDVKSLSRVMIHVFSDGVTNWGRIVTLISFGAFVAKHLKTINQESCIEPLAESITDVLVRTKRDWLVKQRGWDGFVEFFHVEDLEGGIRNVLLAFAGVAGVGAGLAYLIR
Sphingosine 1-phosphate receptor 2, sequence (O95136 whole entry): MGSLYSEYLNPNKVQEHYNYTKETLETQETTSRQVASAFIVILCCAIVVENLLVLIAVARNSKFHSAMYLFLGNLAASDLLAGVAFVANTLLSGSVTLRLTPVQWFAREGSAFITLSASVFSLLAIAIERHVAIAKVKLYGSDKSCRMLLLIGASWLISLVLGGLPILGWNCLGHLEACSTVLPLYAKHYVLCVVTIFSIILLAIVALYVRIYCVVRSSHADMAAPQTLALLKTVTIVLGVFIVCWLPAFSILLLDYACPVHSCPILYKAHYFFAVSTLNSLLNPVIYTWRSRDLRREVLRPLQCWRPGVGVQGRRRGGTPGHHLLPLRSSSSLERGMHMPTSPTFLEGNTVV
Paired box protein Pax-8, sequence (Q06710 whole entry): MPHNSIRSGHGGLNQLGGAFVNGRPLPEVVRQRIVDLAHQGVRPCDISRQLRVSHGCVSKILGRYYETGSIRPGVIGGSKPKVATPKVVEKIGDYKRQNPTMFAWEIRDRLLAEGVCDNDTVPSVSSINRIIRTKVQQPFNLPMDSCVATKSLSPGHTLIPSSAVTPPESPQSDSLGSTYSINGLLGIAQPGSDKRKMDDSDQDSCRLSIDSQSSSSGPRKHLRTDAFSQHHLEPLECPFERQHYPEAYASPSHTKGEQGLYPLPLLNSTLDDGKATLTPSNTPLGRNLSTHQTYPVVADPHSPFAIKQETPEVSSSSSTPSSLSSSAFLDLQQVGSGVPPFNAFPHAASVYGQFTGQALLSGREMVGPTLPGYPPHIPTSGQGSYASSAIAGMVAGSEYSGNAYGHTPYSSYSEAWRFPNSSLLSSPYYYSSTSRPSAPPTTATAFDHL

Turning to `COC(=O)c1sc2cc(C(F)(F)F)cnc2c1-c1cccs1`, in data set [1], the IC50 is given as > 30 µM (not active).
`CC1OC(OCC2OC(Oc3c(-c4ccc(O)cc4)oc4cc(O)cc(O)c4c3=O)C(O)C(O)C2O)C(O)C(O)C1O` (configuration not stated): the results for the IC50 in data set [2] and in data set [3] were 17.3 µM (active) and > 100 µM (active), respectively.
For the molecule `O=C(Nc1cccc2ccccc12)/C(=C/c1ccc([N+](=O)[O-])cc1)NC(=O)c1ccccc1`, the IC50 in data set [4] was 11.4 µM (active). In addition, the AC50 in data set [5] was 5.01 µM (inconclusive).
Consider `COc1ccc(Cc2nnc(NC(=O)Cc3cccs3)s2)cc1`, for which the IC50 in data set [6] is 0.0725 µM (not active); in data set [7], 16.9 µM (active); in [8], 1.59 µM (active); in [9], 52 µM (active); in [10], < 1.56 µM (active); in [4] it was 13.6 µM (active). Moreover, the IC50 in data set [11] is 4.47 µM (active); in data set [12], 2.82 µM (active).
For `CC(C(=O)Nc1ccccc1Oc1ccccc1)c1ccccc1` (configuration not stated), the IC50 was 19.8 µM (not active) in data set [13], > 83.2 µM (inactive) in data set [14] and > 109 µM (inactive) in data set [15].
As to `O=C(Nc1ccc2c(c1)oc1ccccc12)c1cccnc1`, in data set [16], the IC50 was > 100 µM (active). In addition, in [17], the CC50 is 46.2 µM (active).
As to `O=C(CNC(=O)c1cccs1)OCC(=O)c1ccc2ccccc2c1`, the IC50 in data set [16] is > 100 µM (active).
As for `COc1cccc(S(=O)(=O)N(C)C[C@@H]2OCc3ccccc3-c3c(n(C)c4ccccc34)C(=O)N([C@H](C)CO)C[C@@H]2C)c1`, the AC50 in [18] was 38.6 µM (active); in data set [19], 0.322 µM (active); in data set [20], 0.46 µM (active); in data set [21] it was 0.832 µM (active); in [22], 6.87 µM (active); in data set [23] it was 0.476 µM (active).
Consider `C[C@H]1CN([C@@H](C)CO)C(=O)Cc2cc(NC(=O)Nc3ccc(C(F)(F)F)cc3)ccc2O[C@@H]1CN(C)C(=O)Nc1ccc2c(c1)OCO2`, for which the AC50 in data set [19] is 0.9 µM (active); in data set [20], 0.93 µM (active); in data set [21], 1.51 µM (active); in data set [23] it was 1.11 µM (active).
With `Cc1ccc(Cl)c(Nc2ccccc2C(=O)[O-])c1Cl.O.[Na+]` [MECLOFENAMATE SODIUM], the IC50 in data set [24] was > 20 µM (inactive); in [25], > 20 µM (inactive); in data set [26], > 20 µM (inactive); in [28] it was > 20 µM (inactive); in data set [29], > 20 µM (inactive); in [30], 15.1 µM (inactive). The IC50 in data set [31] is > 20 µM (inactive). Moreover, the AC50 entry in data set [27] is given as “inconclusive”.

The term IC50 denotes the point on the concentration scale where inhibition reaches its midpoint. In general, AC50 refers to the concentration at which the activity in the assay is half-maximal. A word on the CC50: it is the concentration at which the toxic effect on the cells reaches its halfway point.
